Laboratory results reported in ChEMBL document CHEMBL1157739, “5'-O-dephosphorylated 2',5'-oligoadenylate (2-5A) with 8-methyladenosine at the 2'-terminus activates human RNase L” (Bioorg Med Chem Lett, 2010).
Active and inactive are the calls of the source. The rule behind the calls is not given here.

Experiments:
[1] = biological target: T1, 2-5A-dependent ribonuclease (Homo sapiens) (UniProt Q05823); assay: […] of human RNaseL ANK domain expressed in Escherichia col assessed as 5' flurescein-r(C11U2C7)-3' RNA cleavage relative to control; set-up: concentration or dose not given beside the values
T1 sequence (whole entry): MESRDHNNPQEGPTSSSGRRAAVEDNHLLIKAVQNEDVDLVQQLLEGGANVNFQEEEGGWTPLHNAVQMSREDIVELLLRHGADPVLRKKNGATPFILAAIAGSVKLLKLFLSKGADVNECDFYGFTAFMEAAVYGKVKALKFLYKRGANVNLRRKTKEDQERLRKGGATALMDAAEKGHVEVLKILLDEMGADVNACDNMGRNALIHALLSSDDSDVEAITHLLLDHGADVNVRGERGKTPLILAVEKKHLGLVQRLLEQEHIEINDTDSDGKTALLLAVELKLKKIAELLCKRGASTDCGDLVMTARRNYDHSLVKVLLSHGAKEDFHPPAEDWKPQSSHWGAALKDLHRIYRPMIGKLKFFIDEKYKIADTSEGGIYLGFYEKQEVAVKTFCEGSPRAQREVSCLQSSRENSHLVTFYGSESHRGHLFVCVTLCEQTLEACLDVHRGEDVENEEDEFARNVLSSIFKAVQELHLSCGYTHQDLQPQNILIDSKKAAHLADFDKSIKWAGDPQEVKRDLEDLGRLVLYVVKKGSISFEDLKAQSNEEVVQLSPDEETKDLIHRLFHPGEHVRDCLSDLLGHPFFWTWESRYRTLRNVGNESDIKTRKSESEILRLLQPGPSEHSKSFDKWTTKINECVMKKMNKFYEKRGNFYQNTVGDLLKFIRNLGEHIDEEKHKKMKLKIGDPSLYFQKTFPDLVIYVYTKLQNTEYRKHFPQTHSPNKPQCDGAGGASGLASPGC

[2] = biological target: T2, 2-5A-dependent ribonuclease (Homo sapiens, UniProt Q05823); assay: […] of human RNaseL ANK domain expressed in Escherichia coli assessed as 5' flurescein-r(C11U2C7)-3' RNA cleavage
T2 sequence (Q05823 whole entry): T1 sequence (whole entry)

[3] = Stability assessed as half life; type: physicochemical

SMILES | Activity [1] | EC50 ([2]; read-out: EC50) | half-life [3] | EC50 [2]
Cc1nc2c(N)ncnc2n1[C@@H]1O[C@H](COP(=O)(O)O[C@@H]2[C@H](O)[C@@H](COP(=O)(O)O[C@@H]3[C@H](O)[C@@H](COP(=O)(O)O[C@@H]4[C@H](O)[C@@H](CO)O[C@H]4n4cnc5c(N)ncnc54)O[C@H]3n3cnc4c(N)ncnc43)O[C@H]2n2cnc3c(N)ncnc32)[C@@H](O)[C@H]1O | 3.9% | 2.5 nM | > 90 min | –
Cc1nc2c(N)ncnc2n1[C@@H]1O[C@H](COP(=O)(O)O[C@@H]2[C@H](O)[C@@H](COP(=O)(O)O[C@@H]3[C@H](O)[C@@H](COP(=O)(O)O[C@@H]4[C@H](O)[C@@H](COP(=O)(O)O)O[C@H]4n4cnc5c(N)ncnc54)O[C@H]3n3cnc4c(N)ncnc43)O[C@H]2n2cnc3c(N)ncnc32)[C@@H](O)[C@H]1O | 3.9% | 2.5 nM | – | –

Second part, the molecule after the results:

Activity [1] | EC50 ([2]; read-out: EC50) | half-life [3] | EC50 [2] | SMILES
< 0.19% | > 50 nM | 18 min | – | Cc1nc2c(N)ncnc2n1[C@@H]1O[C@H](COP(=O)(O)O[C@@H]2[C@H](O)[C@@H](COP(=O)(O)O[C@@H]3[C@H](O)[C@@H](CO)O[C@H]3n3cnc4c(N)ncnc43)O[C@H]2n2cnc3c(N)ncnc32)[C@@H](O)[C@H]1OP(=O)(O)OC[C@H]1O[C@@H](n2cnc3c(N)ncnc32)[C@H](O)[C@@H]1O
inactive | – | 18 min | Not Active | Nc1ncnc2c1ncn2[C@@H]1O[C@H](COP(=O)(O)O[C@@H]2[C@H](O)[C@@H](COP(=O)(O)O[C@@H]3[C@H](O)[C@@H](COP(=O)(O)O[C@@H]4[C@H](O)[C@@H](CO)O[C@H]4n4cnc5c(N)ncnc54)O[C@H]3n3cnc4c(N)ncnc43)O[C@H]2n2cnc3c(N)ncnc32)[C@@H](O)[C@H]1O
1% | 9.7 nM | 14 min | – | Nc1ncnc2c1ncn2[C@@H]1O[C@H](COP(=O)(O)O[C@@H]2[C@H](O)[C@@H](COP(=O)(O)O[C@@H]3[C@H](O)[C@@H](COP(=O)(O)O[C@@H]4[C@H](O)[C@@H](COP(=O)(O)O)O[C@H]4n4cnc5c(N)ncnc54)O[C@H]3n3cnc4c(N)ncnc43)O[C@H]2n2cnc3c(N)ncnc32)[C@@H](O)[C@H]1O
< 0.19% | > 50 nM | 18 min | – | Cc1nc2c(N)ncnc2n1[C@@H]1O[C@H](COP(=O)(O)O[C@@H]2[C@H](O)[C@@H](COP(=O)(O)O[C@@H]3[C@H](O)[C@@H](CO)O[C@H]3n3cnc4c(N)ncnc43)O[C@H]2n2cnc3c(N)ncnc32)[C@@H](O)[C@H]1O
